Assays:
Type in all cases: in vivo
[1] = test system: large crabgrass (Digitaria sanguinalis); assay: Test A pre-/postemergence plant response; conditions: for Crabgrass, Large plant response rating: visual injury, 0 to 100 scale (0 no effect, 100 complete control), approx. ten days
How it was run: (§1)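 Each species was treated preemergence via directed soil spray and postemergence at the one- to two-leaf stage, with compounds formulated in a non-phytotoxic solvent plus surfactant. Visual injury relative to untreated controls was rated after about ten days on a 0–100 scale.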

[2] = test system: velvetleaf (Abutilon theophrasti); assay: Test A pre-/postemergence plant response; conditions: for Velvetleaf plant response rating: visual injury, 0 to 100 scale (0 no effect, 100 complete control), approx. ten days
How it was run: as §1

[3] = test system: wheat (Triticum aestivum); assay: Test A pre-/postemergence plant response; conditions: for Wheat plant response rating: visual injury, 0 to 100 scale (0 no effect, 100 complete control), approx. ten days
How it was run: as §1

[4] = test system: morningglory (Ipomoea spp.); assay: Test A pre-/postemergence plant response; conditions: for Morningglory plant response rating: visual injury, 0 to 100 scale (0 no effect, 100 complete control), approx. ten days
How it was run: as §1

[5] = test system: green foxtail (Setaria viridis); assay: Test B pre-/postemergence plant response; conditions: Postemergence
How it was run: (§2)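 Each species received compound formulated in non-phytotoxic solvent with surfactant, either at planting into a loam and sand blend or as a foliar spray once plants reached 2 to 18 cm in peat-based medium. Plants stayed in the greenhouse 13 to 15 days before visual evaluation against controls, scored 0 (no effect) to 100 (complete control).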

[6] = test system: giant foxtail (Setaria faberii); assay: Test B pre-/postemergence plant response; conditions: Postemergence
How it was run: as §2

kochia (Kochia scoparia) = assay: Test B pre-/postemergence plant response; conditions: Postemergence
How it was run: as §2

[7] = test system: cocklebur (Xanthium strumarium); assay: Test B pre-/postemergence plant response; conditions: Postemergence
How it was run: as §2

[8] = test system: pigweed (Amaranthus retroflexus); assay: Test B pre-/postemergence plant response; conditions: Postemergence
How it was run: as §2

[9] = test system: wheat (Triticum aestivum); assay: Test B pre-/postemergence plant response; conditions: Postemergence
How it was run: as §2

[10] = test system: downy bromegrass (Bromus tectorum); assay: Test B pre-/postemergence plant response; conditions: Postemergence
How it was run: as §2

[11] = test system: morningglory (Ipomoea coccinea); assay: Test B pre-/postemergence plant response; conditions: Postemergence
How it was run: as §2

[12] = test system: goosegrass (Eleusine indica); assay: Test B pre-/postemergence plant response; conditions: Postemergence
How it was run: as §2

[13] = Postemergence, 125 g ai/ha, 0 to 100 scale where 0 is no effect and 100 is complete control
[14] = Preemergence, 125 g ai/ha, 0 to 100 scale, 0 = no effect, 100 = complete control
[15] = Preemergence, 500 g ai/ha, 0 to 100 scale, 0 = no effect, 100 = complete control
[16] = 31 g ai/ha, 0 to 100 scale (0 no effect, 100 complete control)
[17] = 125 g ai/ha, scale 0 to 100 (0 no effect, 100 complete control)
[18] = 250 g ai/ha, scale 0 to 100 (0 no effect, 100 complete control), 13 to 15 days
[19] = 62 g ai/ha, scale 0 to 100 (0 no effect, 100 complete control)

CCCn1c(-c2ccccc2)ncc(C(=O)C2=C(O)C3CCC(C3)C2=O)c1=O (stereo not shown) [Compound 226]
Plant response rating, Crabgrass, Large [1, 13]: 90
Crabgrass, Large plant response rating ([1]; Postemergence, 500 g ai/ha): 100
Plant response rating, Crabgrass, Large [1, 14]: 90
Plant response rating, Crabgrass, Large [1, 15]: 100
Plant response rating, Velvetleaf [2, 13]: 100
Velvetleaf plant response rating ([2]; Postemergence, 500 g ai/ha): 100
Plant response rating, Velvetleaf [2, 14]: 80
Plant response rating, Velvetleaf [2, 15]: 100
Plant response rating, Wheat [3, 13]: 0
Wheat plant response rating ([3]; Postemergence, 500 g ai/ha): 50
Plant response rating, Wheat [3, 14]: 0
Plant response rating, Wheat [3, 15]: 10
Plant response rating, Morningglory [4, 13]: 100
Morningglory plant response rating ([4]; Postemergence, 500 g ai/ha): 100
Plant response rating, Morningglory [4, 14]: 60
Plant response rating, Morningglory [4, 15]: 80
Plant response rating, Foxtail, Green [5, 16]: 70
Plant response rating, Foxtail, Green [5, 17]: 90
Plant response rating, Foxtail, Green [5, 18]: 90
Plant response rating, Foxtail, Green [5, 19]: 80
Plant response rating, Foxtail, Giant [6, 16]: 85
Plant response rating, Foxtail, Giant [6, 17]: 95
Plant response rating, Foxtail, Giant [6, 18]: 95
Plant response rating, Foxtail, Giant [6, 19]: 90
Plant response rating, Kochia (kochia (Kochia scoparia); [16]): 80
Plant response rating, Kochia (kochia (Kochia scoparia); [17]): 100
Plant response rating, Kochia (kochia (Kochia scoparia); [18]): 100
Plant response rating, Kochia (kochia (Kochia scoparia); [19]): 85
Plant response rating, Cocklebur [7, 16]: 98
Plant response rating, Cocklebur [7, 17]: 100
Plant response rating, Cocklebur [7, 18]: 100
Plant response rating, Cocklebur [7, 19]: 98
Plant response rating, Pigweed [8, 16]: 75
Plant response rating, Pigweed [8, 18]: 98
Plant response rating, Pigweed [8, 19]: 85
Plant response rating, Wheat [9, 16]: 10
Plant response rating, Wheat [9, 18]: 30
Plant response rating, Wheat [9, 19]: 15
Plant response rating, Bromegrass, Downy [10, 16]: 0
Plant response rating, Bromegrass, Downy [10, 17]: 5
Plant response rating, Bromegrass, Downy [10, 18]: 30
Plant response rating, Bromegrass, Downy [10, 19]: 0
Plant response rating, Morningglory [11, 16]: 98
Plant response rating, Morningglory [11, 17]: 100
Plant response rating, Morningglory [11, 18]: 100
Plant response rating, Morningglory [11, 19]: 98
Plant response rating, Goosegrass [12, 16]: 80
Plant response rating, Goosegrass [12, 17]: 85
Plant response rating, Goosegrass [12, 18]: 85
Plant response rating, Goosegrass [12, 19]: 80

CCn1c(-c2cccc(F)c2)ncc(C(=O)C2=C(O)C3CCC(C3)C2=O)c1=O (stereo not shown) [Compound 236]
Plant response rating, Crabgrass, Large [1, 13]: 80
Crabgrass, Large plant response rating ([1]; Postemergence, 500 g ai/ha): 90
Plant response rating, Crabgrass, Large [1, 14]: 80
Plant response rating, Crabgrass, Large [1, 15]: 100
Plant response rating, Velvetleaf [2, 13]: 100
Velvetleaf plant response rating ([2]; Postemergence, 500 g ai/ha): 100
Plant response rating, Velvetleaf [2, 14]: 80
Plant response rating, Velvetleaf [2, 15]: 100
Plant response rating, Wheat [3, 13]: 0
Wheat plant response rating ([3]; Postemergence, 500 g ai/ha): 40
Plant response rating, Wheat [3, 14]: 0
Plant response rating, Wheat [3, 15]: 30
Plant response rating, Morningglory [4, 13]: 100
Morningglory plant response rating ([4]; Postemergence, 500 g ai/ha): 100
Plant response rating, Morningglory [4, 14]: 70
Plant response rating, Morningglory [4, 15]: 80
Plant response rating, Foxtail, Green [5, 16]: 80
Plant response rating, Foxtail, Green [5, 17]: 98
Plant response rating, Foxtail, Green [5, 18]: 98
Plant response rating, Foxtail, Green [5, 19]: 95
Plant response rating, Foxtail, Giant [6, 16]: 75
Plant response rating, Foxtail, Giant [6, 17]: 95
Plant response rating, Foxtail, Giant [6, 18]: 98
Plant response rating, Foxtail, Giant [6, 19]: 80
Plant response rating, Kochia (kochia (Kochia scoparia); [16]): 80
Plant response rating, Kochia (kochia (Kochia scoparia); [17]): 100
Plant response rating, Kochia (kochia (Kochia scoparia); [18]): 100
Plant response rating, Kochia (kochia (Kochia scoparia); [19]): 98
Plant response rating, Cocklebur [7, 17]: 100
Plant response rating, Cocklebur [7, 18]: 100
Plant response rating, Cocklebur [7, 19]: 100
Plant response rating, Pigweed [8, 16]: 85
Plant response rating, Pigweed [8, 19]: 85
Plant response rating, Wheat [9, 16]: 0
Plant response rating, Wheat [9, 18]: 60
Plant response rating, Wheat [9, 19]: 10
Plant response rating, Bromegrass, Downy [10, 16]: 0
Plant response rating, Bromegrass, Downy [10, 17]: 10
Plant response rating, Bromegrass, Downy [10, 18]: 25
Plant response rating, Bromegrass, Downy [10, 19]: 5
Plant response rating, Morningglory [11, 16]: 60
Plant response rating, Morningglory [11, 17]: 95
Plant response rating, Morningglory [11, 19]: 95
Plant response rating, Goosegrass [12, 16]: 80
Plant response rating, Goosegrass [12, 17]: 95
Plant response rating, Goosegrass [12, 18]: 100
Plant response rating, Goosegrass [12, 19]: 90
